The target of assay [1] is human immuno proteasome (LMP7) (Homo sapiens (Human), UniProt P28062). The assay can be described thus: Determination of LMP7 activity (fluorescence intensity assay, Suc-LLVY-AMC). The format is biochemical. The method, then: Determination of LMP7 Activity:
Measurement of LMP7 inhibition is performed in 384 well format based on fluorescence intensity assay.
(§1) Purified human immuno proteasome (0.25 nM) and serial diluted compounds in DMSO (range of concentrations from 30 μM to 15 pM) or controls are incubated for 20 minutes or 120 minutes (long incubation) at 25° C. in assay buffer containing 50 mM Tris pH 7.4, 0.03% SDS, 1 mM EDTA and 1% DMSO. The reaction is initiated by the addition of the fluorogenic peptide substrate, Suc-LLVY-AMC (Bachem 1-1395), at a concentration of 40 μM. After 60 minutes of incubation at 37° C., fluorescence intensity is measured at λex=350 nm and λem=450 nm with a fluorescence reader (Perkin Elmer Envision reader or equivalent).
(§2) Unless indicated otherwise the results are obtained after incubation for 20 minutes.

Assay [2] has as its target human constitutive proteasome (Beta5) (Homo sapiens (Human), UniProt P28074). The assay can be described thus: Determination of Beta5 activity (fluorescence intensity assay, Suc-LLVY-AMC). The format is biochemical. On the procedure: Determination of Beta5 Activity:
Measurement of Beta5 inhibition is performed in 384 well format based on fluorescence intensity assay.
as §1, with “constitutive” for “immuno”, “(1.25” for “(0.25”
as §2

Setting [3] is: LMP7 versus Beta5, long incubation (120 min).
The mark [4] stands for this setting: LMP7 versus Beta5, incubation for 20 minutes.

Experimental findings from US10669289B2, “Boronic acid derivatives” (MERCK PATENT GMBH, priority 2014, dated 2020) are described below.

A word on the IC50: it is the midpoint of a concentration-inhibition curve. Higher therefore signals lower potency. `C=CC(=O)N(CC(=O)N[C@@H](Cc1ccc(Cl)cc1Cl)B(O)O)C1CC1` [Compound No. 70, [(1R)-1-[[2-[cyclopropyl(prop-2-enoyl)amino]acetyl]amino]-2-(2,4-dichlorophenyl)ethyl]boronic Acid]: in assay [1] (setting [3]), the “Selectivity LMP7 vs Beta5” value is recorded as “+++++ (Selectivity ≥ 150)”. Further, the IC50 in assay [1] (long incubation (120 min)) was less than 50 nM; in assay [2] (long incubation (120 min)) it was greater than 5 µM.
For `C=CC(=O)N(CC(=O)N[C@@H](Cc1ccc(C)cc1C)B(O)O)c1ccccc1Cl` [Compound No. 87, [(1R)-1-[[2-(2-chloro-N-prop-2-enoyl-anilino)acetyl]amino]-2-(2,4-dimethylphenyl)ethyl]boronic Acid], the “Selectivity LMP7 vs Beta5” value in assay [1] (setting [4]) is on record as “+++++ (Selectivity ≥ 150)”. Also, the 50% inhibitory concentration (IC50) was less than 50 nM in assay [1] (incubation for 20 minutes) and greater than 5 µM in assay [2] (incubation for 20 minutes).
Turning to `C=CC(=O)NCC(=O)N[C@@H](Cc1ccc(C)c(C)c1)B(O)O` [Compound No. 88, [(1R)-2-(3,4-dimethylphenyl)-1-[[2-(prop-2-enoylamino)acetyl]amino]ethyl]boronic Acid], in assay [1] (setting [3]), the “Selectivity LMP7 vs Beta5” value was “+++++ (Selectivity ≥ 150)”. Besides, the concentration for half-maximal inhibition (IC50) in assay [1] (long incubation (120 min)) was less than 50 nM; in assay [2] (long incubation (120 min)) it was 0.5 to 5 µM.
Regarding `C=CC(=O)N1CCC[C@H]1C(=O)N[C@@H](Cc1ccc(C)cc1C)B(O)O` [Compound No. 58, [(1R)-2-(2,4-dimethylphenyl)-1-[[(2S)-1-prop-2-enoylpyrrolidine-2-carbonyl]amino]ethyl]boronic Acid], the “Selectivity LMP7 vs Beta5” value in assay [1] (setting [4]) was “++ (50 ≤ Selectivity < 70)”. Also, the half-inhibitory concentration (IC50) in assay [1] (incubation for 20 minutes) is 500 to 5000 nM; in assay [2] (incubation for 20 minutes) it was greater than 5 µM.
Consider `C=CC(=O)N(CC(=O)N[C@@H](Cc1ccc(C)cc1C)B(O)O)c1cc(F)ccc1F` [Compound No. 42, [(1R)-1-[[2-(2,5-difluoro-N-prop-2-enoyl-anilino)acetyl]amino]-2-(2,4-dimethylphenyl)ethyl]boronic Acid], for which the “Selectivity LMP7 vs Beta5” value in assay [1] (setting [3]) is reported as “+++++ (Selectivity ≥ 150)”. The figures for the IC50 in assay [1] (long incubation (120 min)) and in assay [2] (long incubation (120 min)) were less than 50 nM and greater than 5 µM, respectively.
As for `C/C=C\C(=O)N(CC)CC(=O)N[C@@H](Cc1ccc(C)cc1C)B(O)O` [Compound No. 18, [(1R)-1-[[2-[[(Z)-but-2-enoyl]-ethyl-amino]acetyl]amino]-2-(2,4-dimethylphenyl)ethyl]boronic Acid], the “Selectivity LMP7 vs Beta5” value in assay [1] (setting [4]) is “+++ (70 ≤ 100)”. The IC50 was in the range of 50 to 500 nM in assay [1] (incubation for 20 minutes) and 0.5 to 5 µM in assay [2] (incubation for 20 minutes).
With `C=CC(=O)N(CC(=O)N[C@@H](Cc1ccc(Cl)cc1)B(O)O)c1ccccc1F` [Compound No. 55, [(1R)-2-(4-chlorophenyl)-1-[[2-(2-fluoro-N-prop-2-enoyl-anilino)acetyl]amino]ethyl]boronic Acid], the “Selectivity LMP7 vs Beta5” value in assay [1] (setting [3]) is “+++++ (Selectivity ≥ 150)”. The IC50 is less than 50 nM in assay [1] (long incubation (120 min)) and 0.5 to 5 µM in assay [2] (long incubation (120 min)).
For `C=CC(=O)N(CC#N)CC(=O)N[C@@H](Cc1ccc(C)cc1C)B(O)O` [Compound No. 56, [(1R)-1-[[2-[cyanomethyl(prop-2-enoyl)amino]acetyl]-amino]-2-(2,4-dimethylphenyl)ethyl]boronic Acid], in that order: “+++++ (Selectivity ≥ 150)”, less than 50 nM and greater than 5 µM.
The like results for `C=CC(=O)N(CC(=O)N[C@@H](Cc1coc2ccccc12)B(O)O)c1ccccc1F` [Compound No. 86, [(1R)-2-(benzofuran-3-yl)-1-[[2-(2-fluoro-N-prop-2-enoyl-anilino)acetyl]amino]ethyl]boronic Acid] were, in that order, “+++++ (Selectivity ≥ 150)”, less than 50 nM and 0.05 to 0.5 µM.
For `C=CC(=O)N(CC(=O)N[C@@H](Cc1ccc(C)cc1C)B(O)O)C1CC1` [Compound No. 59, [(1R)-1-[[2-[cyclopropyl(prop-2-enoyl)amino]acetyl]amino]-2-(2,4-dimethylphenyl)ethyl]boronic Acid], in that order: “+++++ (Selectivity ≥ 150)”, less than 50 nM and greater than 5 µM.
For the compound `C=CC(=O)N(CC(=O)N[C@@H](Cc1ccc(C)cc1C)B(O)O)c1ccccc1F` [Compound No. 1, [(1R)-2-(2,4-dimethylphenyl)-1-[[2-(2-fluoro-N-prop-2-enoyl-anilino)acetyl]amino]ethyl]boronic Acid], the “Selectivity LMP7 vs Beta5” value in assay [1] (setting [4]) is on record as “+++++ (Selectivity ≥ 150)”. For the same compound, the half-maximal inhibitory concentration (IC50) in assay [1] (incubation for 20 minutes) is less than 50 nM; in assay [2] (incubation for 20 minutes), greater than 5 µM.
Regarding `C=CC(=O)N(CC(=O)N[C@@H](Cc1ccccc1)B(O)O)c1ccccc1F` [Compound No. 44, [(1R)-1-[[2-(2-fluoro-N-prop-2-enoyl-anilino)acetyl]amino]-2-phenyl-ethyl]boronic Acid], the “Selectivity LMP7 vs Beta5” value in assay [1] (setting [3]) is listed as “+++++ (Selectivity ≥ 150)”. Moreover, the half-inhibitory concentration (IC50) is less than 50 nM in assay [1] (long incubation (120 min)) and greater than 5 µM in assay [2] (long incubation (120 min)).
With `C=CC(=O)N(CC(=O)N[C@@H](Cc1ccc(C)c(C)c1)B(O)O)CC(F)(F)F` [Compound No. 61, [(1R)-2-(3,4-dimethylphenyl)-1-[[2-[prop-2-enoyl(2,2,2-trifluoroethyl)amino]acetyl]amino]ethyl]boronic Acid], the “Selectivity LMP7 vs Beta5” value in assay [1] (setting [3]) is on record as “+++++ (Selectivity ≥ 150)”. Moreover, the IC50 was less than 50 nM in assay [1] (long incubation (120 min)) and greater than 5 µM in assay [2] (long incubation (120 min)).
As to `C=CC(=O)N(CC(=O)N[C@@H](Cc1ccc(C)cc1C)B(O)O)c1ccc(OC(F)(F)F)cc1` [Compound No. 9, [(1R)-2-(2,4-dimethylphenyl)-1-[[2-[N-prop-2-enoyl-4-(trifluoromethoxy)anilino]acetyl]amino]ethyl]boronic Acid], in assay [1] (setting [4]), the “Selectivity LMP7 vs Beta5” value is reported as “+++ (70 ≤ 100)”. Further, the IC50 in assay [1] (incubation for 20 minutes) was less than 50 nM; in assay [2] (incubation for 20 minutes), 0.5 to 5 µM.
Regarding `C=CC(=O)N1CCC[C@@H]1C(=O)N[C@@H](Cc1ccc(Cl)cc1Cl)B(O)O` [Compound No. 54, [(1R)-2-(2,4-dichlorophenyl)-1-[[(2R)-1-prop-2-enoylpyrrolidine-2-carbonyl]amino]ethyl]boronic Acid], in assay [1] (setting [3]), the “Selectivity LMP7 vs Beta5” value was “++ (50 ≤ Selectivity < 70)”. The concentration for half-maximal inhibition (IC50) in assay [1] (long incubation (120 min)) is 500 to 5000 nM; in assay [2] (long incubation (120 min)), greater than 5 µM.
As to `C=CC(=O)N(c1ccccc1)[C@@H](C)C(=O)N[C@@H](Cc1ccc(C)cc1C)B(O)O` [Compound No. 46, [(1R)-2-(2,4-dimethylphenyl)-1-[[(2S)-2-(N-prop-2-enoylanilino)propanoyl]amino]ethyl]boronic Acid], the “Selectivity LMP7 vs Beta5” value in assay [1] (setting [4]) is on record as “++ (50 ≤ Selectivity < 70)”. The figures for the concentration for half-maximal inhibition (IC50) in assay [1] (incubation for 20 minutes) and in assay [2] (incubation for 20 minutes) were 500 to 5000 nM and greater than 5 µM, respectively.
In the case of `C=CC(=O)N(CC)CC(=O)N[C@@H](Cc1ccc(Cl)c(Cl)c1)B(O)O` [Compound No. 65, [(1R)-2-(3,4-dichlorophenyl)-1-[[2-[ethyl(prop-2-enoyl)amino]acetyl]amino]ethyl]boronic Acid], the “Selectivity LMP7 vs Beta5” value in assay [1] (setting [3]) is reported as “+++++ (Selectivity ≥ 150)”. Further, the values for the IC50 in assay [1] (long incubation (120 min)) and in assay [2] (long incubation (120 min)) were less than 50 nM and greater than 5 µM, respectively.
For the compound `C=CC(=O)N(CC#N)CC(=O)N[C@@H](Cc1ccc(C)c(C)c1)B(O)O` [Compound No. 63, [(1R)-1-[[2-[cyanomethyl(prop-2-enoyl)amino]acetyl]amino]-2-(3,4-dimethylphenyl)ethyl]boronic Acid], the “Selectivity LMP7 vs Beta5” value in assay [1] (setting [3]) is “+++++ (Selectivity ≥ 150)”. For the same compound, the 50% inhibitory concentration (IC50) is less than 50 nM in assay [1] (long incubation (120 min)) and greater than 5 µM in assay [2] (long incubation (120 min)).
For `C=CC(=O)N(CC)CC(=O)N[C@@H](Cc1coc2ccccc12)B(O)O` [Compound No. 36, [(1R)-2-(benzofuran-3-yl)-1-[[2-[ethyl(prop-2-enoyl)amino]acetyl]-amino]ethyl]boronic Acid], the “Selectivity LMP7 vs Beta5” value in assay [1] (setting [4]) is “+++ (70 ≤ 100)”. Further, the IC50 was less than 50 nM in assay [1] (incubation for 20 minutes) and 0.05 to 0.5 µM in assay [2] (incubation for 20 minutes).
Take `C=CC(=O)N(CC)CC(=O)N[C@@H](Cc1ccc2ccccc2c1)B(O)O` [Compound No. 81, [(1R)-1-[[2-[ethyl(prop-2-enoyl)amino]acetyl]amino]-2-(2-naphthyl)ethyl]boronic Acid]: in assay [1] (setting [3]), the “Selectivity LMP7 vs Beta5” value was “+++++ (Selectivity ≥ 150)”. Moreover, the IC50 was less than 50 nM in assay [1] (long incubation (120 min)) and greater than 5 µM in assay [2] (long incubation (120 min)).
On to `C/C=C(\C)C(=O)N(CC)CC(=O)N[C@@H](Cc1ccc(C)cc1C)B(O)O` [Compound No. 22, [(1R)-2-(2,4-dimethylphenyl)-1-[[2-[ethyl-[(E)-2-methylbut-2-enoyl]-amino]acetyl]amino]ethyl]boronic Acid], for which the “Selectivity LMP7 vs Beta5” value in assay [1] (setting [4]) is given as “++ (50 ≤ Selectivity < 70)”. The concentration for half-maximal inhibition (IC50) in assay [1] (incubation for 20 minutes) was 50 to 500 nM; in assay [2] (incubation for 20 minutes), greater than 5 µM.
The like results for `C=CC(=O)N(CC)CC(=O)N[C@@H](Cc1ccc(F)cc1)B(O)O` [Compound No. 30, [(1R)-1-[[2-[ethyl(prop-2-enoyl)amino]acetyl]amino]-2-(4-fluorophenyl)ethyl]boronic Acid] were, in that order, “+++ (70 ≤ 100)”, 50 to 500 nM and greater than 5 µM.
